Reference: patent publication US20230136600A1, “Method and device for screening antigen epitope polypeptide” (priority 2020, published 2023)

How the values were obtained:
Balb/c mice [1] = test: Detection of peptide immunogenicity by polypeptide chip: vaccine peptide-specific signal sequencing (timing-sequence response, Fisher exact test); assay type: in vivo; settings: Embodiment IV; 7-peptide mixed solution with adjuvant: Mix 1 AddaVax, 2 Imject Alumn, 3 Alhydrogel, 4 Adju-Phos, 5 MA103A, 6 MA103B
[2] = system: novel coronavirus (live coronavirus), vero cells; test: In-vitro live virus neutralization experiment with serum of immunized mice (CPE method); assay type: in vivo, SARS-CoV-2; settings: Embodiment I: single peptide 100 μg + MF59 at Day 0, 14, 28, Balb/c mice, serum Day 35
Balb/c mice [3] = test: Polypeptide chip-based vaccine immunogenicity scoring system; assay type: in vivo; set-up: key to A2: whether the 95 percentile of the last sampling is increased compared with the end point: Y = rise; N = no rise; settings: for A: 95 percentile grouping number score / B: Mouse performance score: total score = 5; for C1: #A timing-sequence response peptide fragment set / C2: #B vaccine specificity peptide fragment set / C3: Intersection of A and B / C4: Percentage of the intersection in set B / C: Timing-sequence response and specificity score: value of the whole mix
[4] = Embodiment III, polypeptide-KLH
[5] = Embodiment III, polypeptide-KLH, Mix1-10
[6] = Embodiment III, polypeptide-KLH, A*3 + B*2 + C*1
[7] = adjuvant AddaVax, 7 peptides co-immunized in mice
[8] = adjuvant Adju-Phos, 7 peptides co-immunized in mice
[9] = adjuvant Alhydrogel, 7 peptides co-immunized in mice
[10] = adjuvant Imjet Alumn, 7 peptides co-immunized in mice
[11] = adjuvant MA103A, 7 peptides co-immunized in mice
[12] = adjuvant MA103B, 7 peptides co-immunized in mice

## 4 (ALDPLSETKCT; SARS-CoV-2) [compound 4]
Balb/c mice [1]
  #A timing-sequence response peptide fragment set: 203
  #B vaccine specificity peptide fragment set: 1244
  Intersection of A and B: 0
  Mode I: 23
  Mode II: 183

## 2 (RGGSYTNDKAC; SARS-CoV-2) [compound 2]
Balb/c mice [1]
  #A timing-sequence response peptide fragment set: 100
  #B vaccine specificity peptide fragment set: 1244
  Intersection of A and B: 3
  Mode I: 74
  Mode II: 31

## KLDDKDPNFK (SARS-CoV-2) [SEQ ID NO:20]
[2]
  Neutralizing antibody positive rate (%): 20%
Balb/c mice [3]; [4]
  B1: D 0-D 14 95 percentile rise in the number of mice: 3
  B2: D 0-D 21 95 percentile rise in the number of mice: 3
  B3: D 14-D 21 95 percentile rise in the number of mice: 1
  B4: D 21-D 28 95 percentile rise in the number of mice: 1
  A: 95 percentile grouping number score: 3.5
  B: Mouse performance score: 1.9
  C1: #A timing-sequence response peptide fragment set: 511
  C2: #B vaccine specificity peptide fragment set: 364
  C3: Intersection of A and B: 1
  C4: Percentage of the intersection in set B: 0.275
  C: Timing-sequence response and specificity score: 0.5
Balb/c mice [3]; [5]
  A1: difference between a highest median and a D 0 median (95 percentile): 0.08
  A2: whether the 95 percentile of the last sampling is increased compared with the end point: Y
Balb/c mice [3]; [6]
  Total single peptide: 14.8
Balb/c mice [3]; [7]
  1) 95 percentile grouping number A: 0
  1) 95 percentile grouping number A1: 0
  2) Mouse performance B: 1.5
  2) Mouse performance B1: 1
  2) Mouse performance B2: 0
  2) Mouse performance B3: 3
  3) Timing-sequence response and specificity C: 0
  3) Timing-sequence response and specificity C1: 237
  3) Timing-sequence response and specificity C2: 1244
  3) Timing-sequence response and specificity C3: 0
  3) Timing-sequence response and specificity C4: 0.000
  Total single peptide: 3
Balb/c mice [3]; [8]
  1) 95 percentile grouping number A: 1.5
  1) 95 percentile grouping number A1: 0.025
  2) Mouse performance B: 1.4
  2) Mouse performance B1: 2
  2) Mouse performance B2: 2
  2) Mouse performance B3: 1
  3) Timing-sequence response and specificity C: 0
  3) Timing-sequence response and specificity C1: 203
  3) Timing-sequence response and specificity C2: 1244
  3) Timing-sequence response and specificity C3: 0
  3) Timing-sequence response and specificity C4: 0.000
  Total single peptide: 7.3
Balb/c mice [3]; [9]
  1) 95 percentile grouping number A: 0
  1) 95 percentile grouping number A1: 0
  2) Mouse performance B: 1.6
  2) Mouse performance B1: 2
  2) Mouse performance B2: 1
  2) Mouse performance B3: 2
  3) Timing-sequence response and specificity C: 1
  3) Timing-sequence response and specificity C1: 123
  3) Timing-sequence response and specificity C2: 1244
  3) Timing-sequence response and specificity C3: 2
  3) Timing-sequence response and specificity C4: 0.161
  Total single peptide: 3.7
Balb/c mice [3]; [10]
  1) 95 percentile grouping number A: 0
  1) 95 percentile grouping number A1: 0
  2) Mouse performance B: 1.7
  2) Mouse performance B1: 1
  2) Mouse performance B2: 1
  2) Mouse performance B3: 3
  3) Timing-sequence response and specificity C: 1
  3) Timing-sequence response and specificity C1: 100
  3) Timing-sequence response and specificity C2: 1244
  3) Timing-sequence response and specificity C3: 3
  3) Timing-sequence response and specificity C4: 0.241
  Total single peptide: 3.9
Balb/c mice [3]; [11]
  1) 95 percentile grouping number A: 1.5
  1) 95 percentile grouping number A1: 0.015
  2) Mouse performance B: 2.4
  2) Mouse performance B1: 2
  2) Mouse performance B2: 3
  2) Mouse performance B3: 3
  3) Timing-sequence response and specificity C: 1
  3) Timing-sequence response and specificity C1: 260
  3) Timing-sequence response and specificity C2: 1244
  3) Timing-sequence response and specificity C3: 3
  3) Timing-sequence response and specificity C4: 0.241
  Total single peptide: 9.8
Balb/c mice [3]; [12]
  1) 95 percentile grouping number A: 1
  1) 95 percentile grouping number A1: 0.02
  2) Mouse performance B: 2.1
  2) Mouse performance B1: 3
  2) Mouse performance B2: 2
  2) Mouse performance B3: 2
  3) Timing-sequence response and specificity C: 0
  3) Timing-sequence response and specificity C1: 153
  3) Timing-sequence response and specificity C2: 1244
  3) Timing-sequence response and specificity C3: 0
  3) Timing-sequence response and specificity C4: 0.000
  Total single peptide: 7.2

## 3 (SVYAWNRKR; SARS-CoV-2) [compound 3]
Balb/c mice [1]
  #A timing-sequence response peptide fragment set: 123
  #B vaccine specificity peptide fragment set: 1244
  Intersection of A and B: 2
  Mode I: 73
  Mode II: 53

## MEVTPSGTWLTY (SARS-CoV-2) [SEQ ID NO:22]
[2]
  Neutralizing antibody positive rate (%): 20%
Balb/c mice [3]; [4]
  B1: D 0-D 14 95 percentile rise in the number of mice: 3
  B2: D 0-D 21 95 percentile rise in the number of mice: 3
  B3: D 14-D 21 95 percentile rise in the number of mice: 3
  B4: D 21-D 28 95 percentile rise in the number of mice: 0
  A: 95 percentile grouping number score: 2
  B: Mouse performance score: 2.1
  C1: #A timing-sequence response peptide fragment set: 352
  C2: #B vaccine specificity peptide fragment set: 541
  C3: Intersection of A and B: 1
  C4: Percentage of the intersection in set B: 0.185
  C: Timing-sequence response and specificity score: 0.5
Balb/c mice [3]; [5]
  A1: difference between a highest median and a D 0 median (95 percentile): 0.07
  A2: whether the 95 percentile of the last sampling is increased compared with the end point: N
Balb/c mice [3]; [6]
  Total single peptide: 10.7
Balb/c mice [3]; [7]
  1) 95 percentile grouping number A: 4
  1) 95 percentile grouping number A1: 0.05
  2) Mouse performance B: 2.9
  2) Mouse performance B1: 3
  2) Mouse performance B2: 4
  2) Mouse performance B3: 3
  3) Timing-sequence response and specificity C: 0
  3) Timing-sequence response and specificity C1: 237
  3) Timing-sequence response and specificity C2: 1244
  3) Timing-sequence response and specificity C3: 0
  3) Timing-sequence response and specificity C4: 0.000
  Total single peptide: 17.8
Balb/c mice [3]; [8]
  1) 95 percentile grouping number A: 5
  1) 95 percentile grouping number A1: 0.075
  2) Mouse performance B: 2.1
  2) Mouse performance B1: 3
  2) Mouse performance B2: 4
  2) Mouse performance B3: 1
  3) Timing-sequence response and specificity C: 0
  3) Timing-sequence response and specificity C1: 203
  3) Timing-sequence response and specificity C2: 1244
  3) Timing-sequence response and specificity C3: 0
  3) Timing-sequence response and specificity C4: 0.000
  Total single peptide: 19.2
Balb/c mice [3]; [9]
  1) 95 percentile grouping number A: 2
  1) 95 percentile grouping number A1: 0.03
  2) Mouse performance B: 1.7
  2) Mouse performance B1: 3
  2) Mouse performance B2: 2
  2) Mouse performance B3: 1
  3) Timing-sequence response and specificity C: 1
  3) Timing-sequence response and specificity C1: 123
  3) Timing-sequence response and specificity C2: 1244
  3) Timing-sequence response and specificity C3: 2
  3) Timing-sequence response and specificity C4: 0.161
  Total single peptide: 9.9
Balb/c mice [3]; [10]
  1) 95 percentile grouping number A: 5
  1) 95 percentile grouping number A1: 0.145
  2) Mouse performance B: 2.3
  2) Mouse performance B1: 5
  2) Mouse performance B2: 4
  2) Mouse performance B3: 0
  3) Timing-sequence response and specificity C: 1
  3) Timing-sequence response and specificity C1: 100
  3) Timing-sequence response and specificity C2: 1244
  3) Timing-sequence response and specificity C3: 3
  3) Timing-sequence response and specificity C4: 0.241
  Total single peptide: 20.1
Balb/c mice [3]; [11]
  1) 95 percentile grouping number A: 5
  1) 95 percentile grouping number A1: 0.11
  2) Mouse performance B: 2.5
  2) Mouse performance B1: 5
  2) Mouse performance B2: 5
  2) Mouse performance B3: 0
  3) Timing-sequence response and specificity C: 1
  3) Timing-sequence response and specificity C1: 260
  3) Timing-sequence response and specificity C2: 1244
  3) Timing-sequence response and specificity C3: 3
  3) Timing-sequence response and specificity C4: 0.241
  Total single peptide: 20.5
Balb/c mice [3]; [12]
  1) 95 percentile grouping number A: 4.5
  1) 95 percentile grouping number A1: 0.07
  2) Mouse performance B: 3
  2) Mouse performance B1: 4
  2) Mouse performance B2: 5
  2) Mouse performance B3: 2
  3) Timing-sequence response and specificity C: 0
  3) Timing-sequence response and specificity C1: 153
  3) Timing-sequence response and specificity C2: 1244
  3) Timing-sequence response and specificity C3: 0
  3) Timing-sequence response and specificity C4: 0.000
  Total single peptide: 19.5

## 5 (GRLQSLQTY; SARS-CoV-2) [compound 5]
Balb/c mice [1]
  #A timing-sequence response peptide fragment set: 260
  #B vaccine specificity peptide fragment set: 1244
  Intersection of A and B: 3
  Mode I: 102
  Mode II: 171

## 1 (YTNDKACPL; SARS-CoV-2) [compound 1]
Balb/c mice [1]
  #A timing-sequence response peptide fragment set: 237
  #B vaccine specificity peptide fragment set: 1244
  Intersection of A and B: 0
  Mode I: 87
  Mode II: 157

## GVYYPDKVFR (SARS-CoV-2) [SEQ ID NO:7]
Balb/c mice [3]; Embodiment II, Combination 2
  A2: whether the 95 percentile of the last sampling is increased compared with the end point: N
  B1: D 0-D 14 95 percentile rise in the number of mice: 5
  B2: D 0-D 21 95 percentile rise in the number of mice: 0
  B3: D 14-D 21 95 percentile rise in the number of mice: 0
  B4: D 21-D 28 95 percentile rise in the number of mice: 1
  A: 95 percentile grouping number score: 5
  B: Mouse performance score: 1.7
Balb/c mice [3]; Embodiment II, Combination 2, A*3 + B*2 + C*1
  Total single peptide: 18.9
Balb/c mice [3]; Embodiment II, mice immunized with Combination 2
  A1: difference between a highest median and a D 0 median (95 percentile): 0.4
Balb/c mice [3]; [4]
  B1: D 0-D 14 95 percentile rise in the number of mice: 3
  B2: D 0-D 21 95 percentile rise in the number of mice: 3
  B3: D 14-D 21 95 percentile rise in the number of mice: 0
  B4: D 21-D 28 95 percentile rise in the number of mice: 0
  A: 95 percentile grouping number score: 3.5
  B: Mouse performance score: 1.5
  C1: #A timing-sequence response peptide fragment set: 145
  C2: #B vaccine specificity peptide fragment set: 529
  C3: Intersection of A and B: 1
  C4: Percentage of the intersection in set B: 0.189
  C: Timing-sequence response and specificity score: 0.5
Balb/c mice [3]; [5]
  A1: difference between a highest median and a D 0 median (95 percentile): 0.09
  A2: whether the 95 percentile of the last sampling is increased compared with the end point: N
Balb/c mice [3]; [6]
  Total single peptide: 14
